Data taken from ChEMBL document CHEMBL1123818, “Synthesis and biological activity of 5-(2,2-difluorovinyl)-2'-deoxyuridine” (1987).
In brackets after ≈: the same amount, converted by molar mass.

Columns and labels:
FM3A [1] = assay: Compound was tested for antitumor activity against FM3A/0 mammary carcinoma cells; type: functional; conditions: Mus musculus
FM3A [2] = assay: Compound was tested for antitumor activity against FM3A/TK- cells; type: functional; conditions: Mus musculus
[3] = Compound was tested for antiviral activity against herpes simplex virus( HSV-1-F) strain in primary rabbit kidney cells; type: functional; conditions: Oryctolagus cuniculus
Human alphaherpesvirus 1 [4] = assay: (§1) Compound was tested for antiviral activity against herpes simplex virus (thymidine kinase deficient herpes simplex virus ( HSV-1 (B2006) in primary rabbit kidney cells; type: functional
[5] = Compound was tested for antiviral activity against herpes simplex virus( HSV-1-McIntyre) strain in primary rabbit kidney cells; type: functional; conditions: Oryctolagus cuniculus
[6] = Compound was tested for antiviral activity against herpes simplex virus( HSV-2-196 strain in primary rabbit kidney cells; type: functional; conditions: Oryctolagus cuniculus
[7] = Compound was tested for antiviral activity against herpes simplex virus( HSV-2-G) strain in primary rabbit kidney cells; type: functional; conditions: Oryctolagus cuniculus
[8] = Compound was tested for antiviral activity against herpes simplex virus( HSV-2-lyons) strain in primary rabbit kidney cells; type: functional; conditions: Oryctolagus cuniculus
[9] = Compound was tested for antitumor activity against HSV-1 TK gene transformed TK deficient FM3A cells; type: functional; conditions: Mus musculus
MOLT-4F = assay: Compound was tested for antitumor activity against human T-lymphoblast Molt/4F cells; type: functional
Raji [10] = assay: Compound was tested for antitumor activity against human B-lymphoblast Raji/0 cells; type: functional
[11] = Compound was tested for antiviral activity against […] Vassicular stomatitis in primary rabbit kidney cells; type: functional; conditions: Oryctolagus cuniculus
Raji [12] = assay: Compound was tested for antitumor activity against thymidine kinase deficient human B-lymphoblast […] cells; type: functional
[13] = Compound was tested for antiviral activity against herpes simplex virus( HSV-1-KOS) strain in primary rabbit kidney cells; type: functional; conditions: Oryctolagus cuniculus
L1210 = assay: Compound was tested for antitumor activity against L1210 cells; type: functional; conditions: Mus musculus
Human alphaherpesvirus 1 [14] = assay: as §1; type: functional, Oryctolagus cuniculus
Oryctolagus cuniculus = species: Oryctolagus cuniculus; assay: Compound was tested for antiviral activity against Vaccinia virus in primary rabbit kidney cells; type: functional
Human alphaherpesvirus 1 [15] = assay: Compound was tested for antiviral activity against herpes simplex virus (thymidine kinase deficient herpes simplex virus( HSV-1 (B2006) in primary rabbit kidney cells; type: functional, Oryctolagus cuniculus
[16] = Compound was tested for antiviral activity against herpes simplex virus (HSV-1-McIntyre) strain in primary rabbit kidney cells; type: functional; conditions: Oryctolagus cuniculus

SMILES | MIC50 (FM3A [1]) | MIC50 (FM3A [2]) | MIC50 [3] | MIC50 (Human alphaherpesvirus 1 [4]) | MIC50 [5] | MIC50 [6] | MIC50 [7] | MIC50 [8] | MIC50 [9] | MIC50 (MOLT-4F) | MIC50 (Raji [10]) | MIC50 [11] | MIC50 (Raji [12]) | MIC50 [13] | MIC50 (L1210) | MIC50 (Human alphaherpesvirus 1 [14]) | MIC50 (Oryctolagus cuniculus) | MIC50 (Human alphaherpesvirus 1 [15]) | MIC50 [16]
O=c1[nH]c(=O)n([C@@H]2C[C@H](O)[C@@H](CO)O2)cc1C=C(F)F | > 100 µg/mL | > 100 µg/mL | 20 µg/mL (≈ 68.9 µM) | > 200 µg/mL | 20 µg/mL (≈ 68.9 µM) | 100 µg/mL (≈ 345 µM) | 150 µg/mL (≈ 517 µM) | 70 µg/mL (≈ 241 µM) | > 100 µg/mL | > 100 µg/mL | > 100 µg/mL | > 200 µg/mL | > 100 µg/mL | 20 µg/mL (≈ 68.9 µM) | > 100 µg/mL |  |  |  | 
O=c1[nH]c(=O)n([C@H]2C[C@H](O)[C@@H](CO)O2)cc1C=C(F)F | 55 µg/mL (≈ 190 µM) | > 100 µg/mL | 0.3 µg/mL (≈ 1.03 µM) |  | 0.3 µg/mL (≈ 1.03 µM) | 10 µg/mL (≈ 34.5 µM) | 6 µg/mL (≈ 20.7 µM) | 3 µg/mL (≈ 10.3 µM) | 0.25 µg/mL (≈ 0.861 µM) | 42 µg/mL (≈ 145 µM) | 33 µg/mL (≈ 114 µM) | > 200 µg/mL | > 100 µg/mL | 0.2 µg/mL (≈ 0.689 µM) | 30 µg/mL (≈ 103 µM) | > 200 µg/mL | 15 µg/mL (≈ 51.7 µM) |  | 
O=c1[nH]c(=O)n([C@H]2C[C@H](O)[C@@H](CO)O2)cc1C=C(Br)Br | > 100 µg/mL | > 100 µg/mL | 70 µg/mL (≈ 170 µM) |  | 20 µg/mL (≈ 48.5 µM) | 150 µg/mL (≈ 364 µM) | 200 µg/mL (≈ 485 µM) | 200 µg/mL (≈ 485 µM) | 7 µg/mL (≈ 17 µM) | > 100 µg/mL | > 100 µg/mL | > 400 µg/mL | > 100 µg/mL | 20 µg/mL (≈ 48.5 µM) | > 100 µg/mL | > 150 µg/mL | 100 µg/mL (≈ 243 µM) |  | 
Oc1ncc(C=C(F)F)c(O)n1 | > 100 µg/mL | > 100 µg/mL | > 200 µg/mL |  |  | > 200 µg/mL | > 200 µg/mL | > 200 µg/mL | > 100 µg/mL | > 100 µg/mL | > 100 µg/mL | > 200 µg/mL | > 100 µg/mL | > 200 µg/mL | > 100 µg/mL |  | > 200 µg/mL | > 200 µg/mL | > 200 µg/mL
O=c1[nH]c(=O)n([C@H]2C[C@H](O)[C@@H](CO)O2)cc1/C=C/Br [BRIVUDINE] | 13 µg/mL (≈ 39 µM) | 0.4 µg/mL (≈ 1.2 µM) | 0.02 µg/mL (≈ 0.06 µM) |  | 0.02 µg/mL (≈ 0.06 µM) | 7 µg/mL (≈ 21 µM) | 2 µg/mL (≈ 6 µM) | 7 µg/mL (≈ 21 µM) | 0.0004 µg/mL (≈ 0.0012 µM) | > 100 µg/mL | 29 µg/mL (≈ 87.1 µM) | > 200 µg/mL | 78 µg/mL (≈ 234 µM) | 0.02 µg/mL (≈ 0.06 µM) | 31 µg/mL (≈ 93.1 µM) | > 200 µg/mL | 20 µg/mL (≈ 60 µM) |  | 
O=c1[nH]c(=O)n([C@H]2C[C@H](O)[C@@H](CO)O2)cc1I [IDOXURIDINE] |  |  | 0.2 µg/mL (≈ 0.565 µM) |  | 0.3 µg/mL (≈ 0.847 µM) | 3 µg/mL (≈ 8.47 µM) | 1.5 µg/mL (≈ 4.24 µM) | 1.5 µg/mL (≈ 4.24 µM) |  |  |  | > 200 µg/mL |  | 0.15 µg/mL (≈ 0.424 µM) |  | > 200 µg/mL | 0.5 µg/mL (≈ 1.41 µM) |  | 
